Format in all cases: cell-based
One assay concerns the target T1, GIP receptor (Homo sapiens, UniProt P48546).
T1 sequence (P48546 22-466): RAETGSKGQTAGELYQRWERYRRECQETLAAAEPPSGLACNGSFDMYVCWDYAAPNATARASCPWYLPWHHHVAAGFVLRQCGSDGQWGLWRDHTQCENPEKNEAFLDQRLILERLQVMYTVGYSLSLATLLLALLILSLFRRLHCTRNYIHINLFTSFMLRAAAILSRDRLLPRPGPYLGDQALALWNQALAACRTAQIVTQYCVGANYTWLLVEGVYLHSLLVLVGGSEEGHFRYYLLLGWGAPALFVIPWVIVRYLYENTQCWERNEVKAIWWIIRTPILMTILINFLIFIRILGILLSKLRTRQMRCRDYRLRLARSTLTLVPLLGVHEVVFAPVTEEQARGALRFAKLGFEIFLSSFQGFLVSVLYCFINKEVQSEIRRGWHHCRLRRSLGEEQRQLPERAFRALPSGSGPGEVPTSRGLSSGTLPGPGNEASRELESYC
As to the kind of experiment: cAMP induction, firefly luciferase reporter assay in HEK293 cells co-transfected with GIP receptor.

A further assay has as its target T2, glucagon receptor (Homo sapiens, UniProt P47871).
T2 construct: expressed in transfected cells; host or cells: HEK293
Description: cAMP induction, firefly luciferase reporter assay in HEK293 cells co-transfected with glucagon receptor. The text has this: (§1) This example describes an exemplary method of testing the biological activity of the peptides of the present disclosures, which method involves assaying cAMP synthesis.

For a further assay, the target named is T3, GLP-1 receptor (Homo sapiens, UniProt P43220).
T3 construct: expressed in transfected cells; host or cells: HEK293
As to the kind of experiment: cAMP induction, firefly luciferase reporter assay in HEK293 cells co-transfected with GLP-1 receptor.
Description: as §1

[1] abbreviates: GLP-1 Receptor EC50, Table 10, Example 16.
Setting [2] is: EC50 (nM) at GIP receptor, Table 16, Example 24.
[3] abbreviates: EC50 (nM) at glucagon receptor, Table 16, Example 24.
The mark [4] stands for this setting: EC50 (nM) at GLP-1 receptor, Table 16, Example 24.

Like-named read-outs stand apart in the source and are kept apart here. *1 amine or outer side, *2 acyl side, *3 side chain or, on linkers, in order; H or OH if unused. Where a SMILES comes first, the peptide text is derived from it. Where no end group is shown, it is not given here. Side-chain parts run from the residue outwards. [ ]: non-standard residue; d: D form. The star is where a group is joined. Phe(4-NH2) = Nc1ccc(C[C@H](N)C(=O)O)cc1; γGlu = O=C(O)[C@H](CCC(=O)[*:2])N[*:1]; X6 = CCCCCCCCCCCCCCCCC(CC(=O)*)C(=O)O; X3 = CCCCCCCCCCCCCCC(CC(=O)*)C(=O)O; Palmitoyl = CCCCCCCCCCCCCCCC(=O)*; Aib = CC(C)(N)C(=O)O

T2 sequence (P47871 26-477): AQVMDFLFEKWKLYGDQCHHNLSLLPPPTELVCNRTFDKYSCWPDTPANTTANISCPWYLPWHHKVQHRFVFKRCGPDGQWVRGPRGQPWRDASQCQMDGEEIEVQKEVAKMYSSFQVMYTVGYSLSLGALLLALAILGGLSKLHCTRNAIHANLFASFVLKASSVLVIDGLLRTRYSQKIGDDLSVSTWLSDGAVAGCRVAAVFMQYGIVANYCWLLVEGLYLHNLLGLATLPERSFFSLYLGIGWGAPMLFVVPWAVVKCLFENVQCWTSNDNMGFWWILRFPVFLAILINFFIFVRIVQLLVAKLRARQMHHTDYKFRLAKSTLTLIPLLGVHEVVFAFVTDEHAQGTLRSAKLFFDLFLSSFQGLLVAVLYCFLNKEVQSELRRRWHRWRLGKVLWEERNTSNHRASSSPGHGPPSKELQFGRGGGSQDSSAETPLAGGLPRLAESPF
T3 sequence (P43220 24-463): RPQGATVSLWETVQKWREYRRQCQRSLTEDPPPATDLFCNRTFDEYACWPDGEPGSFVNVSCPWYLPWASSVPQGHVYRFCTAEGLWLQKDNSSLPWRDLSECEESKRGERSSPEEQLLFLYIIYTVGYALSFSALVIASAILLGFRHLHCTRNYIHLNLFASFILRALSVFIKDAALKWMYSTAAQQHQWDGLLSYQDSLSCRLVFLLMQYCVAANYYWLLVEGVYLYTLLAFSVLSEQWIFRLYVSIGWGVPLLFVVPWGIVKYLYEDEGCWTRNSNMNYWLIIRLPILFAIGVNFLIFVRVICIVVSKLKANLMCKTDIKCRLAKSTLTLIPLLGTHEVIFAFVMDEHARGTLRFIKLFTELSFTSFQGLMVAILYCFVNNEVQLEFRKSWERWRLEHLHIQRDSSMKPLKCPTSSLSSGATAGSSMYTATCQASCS

On to `CCCCCCCCCCCCCCCC(=O)N[C@@H](CCC(=O)NCCCC[C@H](NC(=O)[C@H](CCCCN)NC(=O)[C@H](CO)NC(=O)[C@H](Cc1ccc(O)cc1)NC(=O)[C@H](CC(=O)O)NC(=O)[C@H](CO)NC(=O)[C@@H](NC(=O)[C@H](Cc1ccccc1)NC(=O)[C@@H](NC(=O)CNC(=O)[C@H](CCC(N)=O)NC(=O)C(C)(C)NC(=O)[C@@H](N)Cc1c[nH]cn1)[C@@H](C)O)[C@@H](C)O)C(=O)N[C@@H](CC(C)C)C(=O)N[C@@H](CC(=O)O)C(=O)N[C@@H](CCC(=O)O)C(=O)N[C@@H](CCCNC(=N)N)C(=O)N[C@@H](C)C(=O)N[C@@H](C)C(=O)N[C@@H](CCC(N)=O)C(=O)N[C@@H](CC(=O)O)C(=O)N[C@@H](Cc1ccccc1)C(=O)N[C@H](C(=O)N[C@@H](CCC(N)=O)C(=O)N[C@@H](Cc1c[nH]c2ccccc12)C(=O)N[C@@H](CC(C)C)C(=O)N[C@@H](CC(C)C)C(=O)N[C@@H](CC(=O)O)C(=O)NCC(=O)NCC(=O)N1CCC[C@H]1C(=O)N[C@@H](CO)C(=O)N[C@@H](CO)C(=O)NCC(=O)N[C@@H](C)C(=O)N1CCC[C@H]1C(=O)N1CCC[C@H]1C(=O)N1CCC[C@H]1C(=O)N[C@@H](CO)C(N)=O)C(C)C)C(=O)O` [SEQ ID NO: 151] (H-H[Aib]QGTFTSDYSKK([γGlu-Palmitoyl])LDERAAQDFVQWLLDGGPSSGAPPPS-NH2), for which the EC50 at GIP receptor (Table 10, Example 16, read-out: GIP-1 Receptor EC50) came to 0.309 nM; on glucagon receptor (Glucagon Receptor EC50, Table 10, Example 16), 0.008 nM; at GLP-1 receptor (setting [1]), 0.004 nM.

Regarding `CCCCCCCCCCCCCCCC(=O)N[C@@H](CCC(=O)NCCCC[C@H](NC(=O)[C@H](CC(=O)O)NC(=O)[C@H](CO)NC(=O)[C@@H](NC(=O)[C@H](Cc1ccccc1)NC(=O)[C@@H](NC(=O)CNC(=O)[C@H](CCC(N)=O)NC(=O)C(C)(C)NC(=O)[C@@H](N)Cc1c[nH]cn1)[C@@H](C)O)[C@@H](C)O)C(=O)N[C@@H](CO)C(=O)N[C@@H](CCCCN)C(=O)N[C@@H](Cc1ccc(O)cc1)C(=O)N[C@@H](CC(C)C)C(=O)N[C@@H](CC(=O)O)C(=O)N[C@@H](CCC(=O)O)C(=O)N[C@@H](CCCNC(=N)N)C(=O)N[C@@H](CCCNC(=N)N)C(=O)N[C@@H](C)C(=O)NC(C)(C)C(=O)N[C@@H](CCC(=O)O)C(=O)N[C@@H](Cc1ccccc1)C(=O)N[C@H](C(=O)N[C@@H](CCC(N)=O)C(=O)N[C@@H](Cc1c[nH]c2ccccc12)C(=O)N[C@@H](CC(C)C)C(=O)N[C@@H](CC(C)C)C(=O)N[C@@H](CC(=O)O)C(=O)NCC(=O)NCC(=O)N1CCC[C@H]1C(=O)N[C@@H](CO)C(=O)N[C@@H](CO)C(=O)NCC(=O)N[C@@H](C)C(=O)N1CCC[C@H]1C(=O)N1CCC[C@H]1C(=O)N1CCC[C@H]1C(=O)N[C@@H](CO)C(N)=O)C(C)C)C(=O)O` [compound 37] (H-H[Aib]QGTFTSDK([γGlu-Palmitoyl])SKYLDERRA[Aib]EFVQWLLDGGPSSGAPPPS-NH2; N-terminus assumed), the EC50 on GIP receptor (EC50 (nM) at GIP Receptor, Table 4, Example 9, composite of multiple different activity assays) was 0.002 nM; at glucagon receptor (EC50 (nM) at Glucagon Receptor, Table 4, Example 9, composite of multiple different activity assays), 0.004 nM; on GLP-1 receptor (EC50 (nM) at GLP-1 Receptor, Table 4, Example 9, composite of multiple different activity assays), 0.006 nM.

With `CCCCCCCCCCCCCCCC(=O)N[C@@H](CCC(=O)N[C@@H](CCC(=O)NCCCC[C@H](NC(=O)[C@H](CC(=O)O)NC(=O)[C@H](CO)NC(=O)[C@@H](NC(=O)[C@H](Cc1ccccc1)NC(=O)[C@@H](NC(=O)CNC(=O)[C@H](CCC(N)=O)NC(=O)C(C)(C)NC(=O)[C@@H](N)Cc1c[nH]cn1)[C@@H](C)O)[C@@H](C)O)C(=O)N[C@@H](CO)C(=O)N[C@@H](CCCCN)C(=O)N[C@@H](Cc1ccc(O)cc1)C(=O)N[C@@H](CC(C)C)C(=O)N[C@@H](CC(=O)O)C(=O)N[C@@H](CCC(=O)O)C(=O)N[C@@H](CCCNC(=N)N)C(=O)N[C@@H](C)C(=O)N[C@@H](C)C(=O)N[C@@H](CCC(N)=O)C(=O)N[C@@H](CC(=O)O)C(=O)N[C@@H](Cc1ccccc1)C(=O)N[C@H](C(=O)N[C@@H](CCC(N)=O)C(=O)N[C@@H](Cc1c[nH]c2ccccc12)C(=O)N[C@@H](CC(C)C)C(=O)N[C@@H](CC(C)C)C(=O)N[C@@H](CC(=O)O)C(=O)NCC(=O)NCC(=O)N1CCC[C@H]1C(=O)N[C@@H](CO)C(=O)N[C@@H](CO)C(=O)NCC(=O)N[C@@H](C)C(=O)N1CCC[C@H]1C(=O)N1CCC[C@H]1C(=O)N1CCC[C@H]1C(=O)N[C@@H](CO)C(=O)NCC(N)=O)C(C)C)C(=O)O)C(=O)O` [SEQ ID NO: 207] (H-H[Aib]QGTFTSDK([γGlu-γGlu-Palmitoyl])SKYLDERAAQDFVQWLLDGGPSSGAPPPSG-NH2; N-terminus assumed), the EC50 at GIP receptor (setting [2]) came out at 0.015 nM; at glucagon receptor (setting [3]), 0.005 nM; on GLP-1 receptor (setting [4]), 0.002 nM.

As for `CCCCCCCCCCCCCCCCC(CC(=O)Nc1ccc(C[C@H](NC(=O)[C@H](CC(=O)O)NC(=O)[C@H](CO)NC(=O)[C@@H](NC(=O)[C@H](Cc2ccccc2)NC(=O)[C@@H](NC(=O)CNC(=O)[C@H](CCC(N)=O)NC(=O)C(C)(C)NC(=O)[C@@H](N)Cc2c[nH]cn2)[C@@H](C)O)[C@@H](C)O)C(=O)N[C@@H](CO)C(=O)N[C@@H](CCCCN)C(=O)N[C@@H](Cc2ccc(O)cc2)C(=O)N[C@@H](CC(C)C)C(=O)N[C@@H](CC(=O)O)C(=O)N[C@@H](CCC(=O)O)C(=O)N[C@@H](CCCNC(=N)N)C(=O)N[C@@H](C)C(=O)N[C@@H](C)C(=O)N[C@@H](CCC(N)=O)C(=O)N[C@@H](CC(=O)O)C(=O)N[C@@H](Cc2ccccc2)C(=O)N[C@H](C(=O)N[C@@H](CCC(N)=O)C(=O)N[C@@H](Cc2c[nH]c3ccccc23)C(=O)N[C@@H](CC(C)C)C(=O)N[C@@H](CC(C)C)C(=O)N[C@@H](CC(=O)O)C(=O)NCC(=O)NCC(=O)N2CCC[C@H]2C(=O)N[C@@H](CO)C(=O)N[C@@H](CO)C(=O)NCC(=O)N[C@@H](C)C(=O)N2CCC[C@H]2C(=O)N2CCC[C@H]2C(=O)N2CCC[C@H]2C(=O)N[C@@H](CO)C(N)=O)C(C)C)cc1)C(=O)O` (stereo partly drawn) [SEQ ID NO: 150], the results for the EC50 on GIP receptor, at glucagon receptor and on GLP-1 receptor were 0.141 nM, 0.006 nM and 0.004 nM, respectively.

Consider “H[Aib]QGTFTSDYSKYLDERAAQDFVQWLLDGGPSSGAPPPSK(X3)G-NH2 [SEQ ID NO: 176]”, for which the EC50 on GIP receptor (GIP-1 Receptor EC50, Table 10, Example 16) turned out to be 0.101 nM; at glucagon receptor it was 0.012 nM; on GLP-1 receptor (setting [1]), 0.014 nM.

Regarding `CCCCCCCCCCCCCCCC(=O)N[C@@H](CCC(=O)NCCCC[C@H](NC(=O)[C@H](CC(=O)O)NC(=O)[C@H](CO)NC(=O)[C@@H](NC(=O)[C@H](Cc1ccccc1)NC(=O)[C@@H](NC(=O)CNC(=O)[C@H](CCC(N)=O)NC(=O)C(C)(C)NC(=O)[C@@H](N)Cc1c[nH]cn1)[C@@H](C)O)[C@@H](C)O)C(=O)N[C@@H](CO)C(=O)N[C@@H](CCCCN)C(=O)N[C@@H](Cc1ccc(O)cc1)C(=O)N[C@@H](CC(C)C)C(=O)N[C@@H](CC(=O)O)C(=O)N[C@@H](CCC(=O)O)C(=O)N[C@@H](CCCNC(=N)N)C(=O)N[C@@H](C)C(=O)N[C@@H](C)C(=O)N[C@@H](CCC(N)=O)C(=O)N[C@@H](CC(=O)O)C(=O)N[C@@H](Cc1ccccc1)C(=O)N[C@H](C(=O)N[C@@H](CCC(N)=O)C(=O)N[C@@H](Cc1c[nH]c2ccccc12)C(=O)N[C@@H](CC(C)C)C(=O)N[C@@H](CC(C)C)C(=O)N[C@@H](CC(=O)O)C(=O)NCC(=O)NCC(=O)N1CCC[C@H]1C(=O)N[C@@H](CO)C(=O)N[C@@H](CO)C(=O)NCC(=O)N[C@@H](C)C(=O)N1CCC[C@H]1C(=O)N1CCC[C@H]1C(=O)N1CCC[C@H]1C(=O)N[C@@H](CO)C(=O)NCC(N)=O)C(C)C)C(=O)O` [SEQ ID NO: 205] (H-H[Aib]QGTFTSDK([γGlu-Palmitoyl])SKYLDERAAQDFVQWLLDGGPSSGAPPPSG-NH2), the figures for the EC50 on GIP receptor (setting [2]), on glucagon receptor (setting [3]) and at GLP-1 receptor (setting [4]) were 0.004 nM, 0.005 nM and 0.002 nM, respectively.

For the molecule `CCCCCCCCCCCCCCCCC(CC(=O)Nc1ccc(C[C@H](NC(=O)[C@H](CC(=O)O)NC(=O)[C@H](CO)NC(=O)[C@@H](NC(=O)[C@H](Cc2ccccc2)NC(=O)[C@@H](NC(=O)CNC(=O)[C@H](CCC(=O)O)NC(=O)C(C)(C)NC(=O)[C@@H](N)Cc2ccc(O)cc2)[C@@H](C)O)[C@@H](C)O)C(=O)N[C@@H](CO)C(=O)N[C@H](C(=O)N[C@@H](Cc2ccc(O)cc2)C(=O)N[C@@H](CC(C)C)C(=O)N[C@@H](CC(=O)O)C(=O)N[C@@H](CCCCN)C(=O)N[C@@H](CCC(N)=O)C(=O)N[C@@H](C)C(=O)N[C@@H](C)C(=O)NC(C)(C)C(=O)N[C@@H](CCC(=O)O)C(=O)N[C@@H](Cc2ccccc2)C(=O)N[C@H](C(=O)N[C@@H](CC(N)=O)C(=O)N[C@@H](Cc2c[nH]c3ccccc23)C(=O)N[C@@H](CC(C)C)C(=O)N[C@@H](CC(C)C)C(=O)N[C@@H](C)C(=O)NCC(=O)NCC(=O)N2CCC[C@H]2C(=O)N[C@@H](CO)C(=O)N[C@@H](CO)C(=O)NCC(=O)N[C@@H](C)C(=O)N2CCC[C@H]2C(=O)N2CCC[C@H]2C(=O)N2CCC[C@H]2C(=O)N[C@@H](CO)C(N)=O)C(C)C)[C@@H](C)CC)cc1)C(=O)O` (stereo partly drawn) [SEQ ID NO: 144] (H-Y[Aib]EGTFTSD[Phe(4-NH2)](X6)SIYLDKQAA[Aib]EFVNWLLAGGPSSGAPPPS-NH2; N-terminus assumed), the EC50 was 0.013 nM at GIP receptor, above 0.5 nM on glucagon receptor and 0.004 nM at GLP-1 receptor.

The record behind these values is patent publication US9587005B2 (priority 2010, dated 2017).
